Reference: the supplement of paper PMC8612539
≈ marks a conversion by molar mass, not a printed value.

Tested on: Mannheimia haemolytica
Test: minimum inhibitory concentration (MIC)
Procedure: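 Broth microdilution MIC (Sensititre BOPO7F bovine plate, CLSI methods) of 19 antimicrobials against field isolates of P. multocida, M. haemolytica, H. somni (deep nasopharyngeal swabs) and E. coli, Enterococcus spp. (rectal swabs) from weaned dairy heifers. Incubation 16-24 h at 35 C. MIC is the lowest concentration preventing visible growth. Values with <= or > lie at the tested range limits. Trimethoprim-sulfamethoxazole is given as the trimethoprim component of a 1:19 mixture.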

NC[C@@H]1O[C@H](O[C@H]2[C@@H](O)[C@H](O[C@@H]3[C@@H](O)[C@H](N)C[C@H](N)[C@H]3O[C@H]3O[C@H](CN)[C@@H](O)[C@H](O)[C@H]3N)O[C@@H]2CO)[C@H](N)[C@@H](O)[C@@H]1O [Neomycin]
Conditions | minimum inhibitory concentration [µg/mL]
isolate (source animal id): 8 | > 32
isolate (source animal id): 13 | > 32
isolate (source animal id): 18 | > 32
isolate (source animal id): 21 | > 32
isolate (source animal id): 25 | > 32
isolate (source animal id): 27 | > 32
isolate (source animal id): 28 | 8 (≈ 13 µM)
isolate (source animal id): 30 | > 32
isolate (source animal id): 31 | 16 (≈ 26 µM)
isolate (source animal id): 32 | > 32
isolate (source animal id): 34 | > 32
isolate (source animal id): 36 | > 32
isolate (source animal id): 37 | > 32
isolate (source animal id): 40 | > 32
isolate (source animal id): 41 | > 32
isolate (source animal id): 43 | > 32
isolate (source animal id): 46 | > 32
isolate (source animal id): 49 | > 32
isolate (source animal id): 50 | > 32
isolate (source animal id): 51 | > 32
isolate (source animal id): 52 | > 32
isolate (source animal id): 53 | > 32
isolate (source animal id): 55 | 32 (≈ 52.1 µM)
isolate (source animal id): 56 | > 32
isolate (source animal id): 57 | > 32
isolate (source animal id): 100 | > 32
isolate (source animal id): 103 | > 32
isolate (source animal id): 107 | > 32
isolate (source animal id): 108 | > 32
isolate (source animal id): 112 | > 32
isolate (source animal id): 113 | > 32
isolate (source animal id): 121 | > 32
isolate (source animal id): 122 | > 32
isolate (source animal id): 123 | > 32
isolate (source animal id): 126 | > 32
isolate (source animal id): 133 | > 32
isolate (source animal id): 135 | > 32
isolate (source animal id): 138 | > 32
isolate (source animal id): 141 | > 32
isolate (source animal id): 142 | > 32
isolate (source animal id): 145 | > 32
isolate (source animal id): 149 | ≤ 4
isolate (source animal id): 151 | ≤ 4
isolate (source animal id): 152 | 8 (≈ 13 µM)
isolate (source animal id): 154 | 8 (≈ 13 µM)
isolate (source animal id): 159 | > 32
isolate (source animal id): 162 | > 32
isolate (source animal id): 170 | > 32
isolate (source animal id): 171 | ≤ 4
isolate (source animal id): 172 | > 32
isolate (source animal id): 173 | > 32
isolate (source animal id): 179 | > 32
isolate (source animal id): 180 | > 32
isolate (source animal id): 183 | > 32
isolate (source animal id): 186 | > 32
isolate (source animal id): 187 | > 32
isolate (source animal id): 188 | > 32
isolate (source animal id): 190 | 8 (≈ 13 µM)
isolate (source animal id): 191 | > 32
isolate (source animal id): 192 | ≤ 4
isolate (source animal id): 201 | > 32
isolate (source animal id): 202 | > 32
isolate (source animal id): 209 | > 32
isolate (source animal id): 211 | 8 (≈ 13 µM)
isolate (source animal id): 220 | > 32
isolate (source animal id): 221 | > 32
isolate (source animal id): 223 | > 32
isolate (source animal id): 233 | > 32
isolate (source animal id): 237 | 8 (≈ 13 µM)
isolate (source animal id): 241 | > 32
isolate (source animal id): 252 | > 32
isolate (source animal id): 253 | > 32
isolate (source animal id): 259 | > 32
isolate (source animal id): 260 | > 32
isolate (source animal id): 262 | > 32
isolate (source animal id): 282 | > 32
isolate (source animal id): 287 | > 32
isolate (source animal id): 288 | 8 (≈ 13 µM)
isolate (source animal id): 291 | 8 (≈ 13 µM)
isolate (source animal id): 293 | > 32
isolate (source animal id): 298 | > 32
isolate (source animal id): 299 | > 32
isolate (source animal id): 300 | ≤ 4
isolate (source animal id): 302 | > 32
isolate (source animal id): 304 | > 32
isolate (source animal id): 306 | ≤ 4
isolate (source animal id): 308 | 8 (≈ 13 µM)
isolate (source animal id): 309 | 8 (≈ 13 µM)
isolate (source animal id): 313 | > 32
isolate (source animal id): 318 | > 32
isolate (source animal id): 320 | ≤ 4
isolate (source animal id): 321 | > 32
isolate (source animal id): 323 | > 32
isolate (source animal id): 324 | > 32
isolate (source animal id): 326 | > 32
isolate (source animal id): 328 | > 32
isolate (source animal id): 329 | > 32
isolate (source animal id): 333 | > 32
isolate (source animal id): 335 | > 32
isolate (source animal id): 338 | > 32
